Entries after “also recorded” stand apart in the source; their conditions may differ. Structures can show the parent of a compound that is named as a salt.
Assays:
[1] = tested on: phosphorylation of STAT3/5; test: NIA/FACS of tumor cells of lymphoma patients treated with atorvastatin; type: in vivo, human
Description: FIG. 5A-5C. NIA detected decrease in oncoproteins upon treatment with biologic response modifying therapeutic agent. (FIG. 5A) Schematic for the use of NIA to assess proteomic changes in clinical tumor specimens. Patients undergo pretreatment tumor sampling at baseline and again after 8 d of treatment with atorvastatin. (FIG. 5B) NIA analysis of tumor cells for changes in pSTAT3 and pSTAT5. (FIG. 5C) NIA quantification of pSTAT3 and pSTAT5±s.e.m. Samples were run in triplicate.
Predicted pl's were calculated using Scansite.
Phosphorylation of STAT3/5 decreased in lymphoma patients treated with atorvastatin. Tumor cells were sampled from lymphoma patients day 1 and day 8 of atorvastatin treatment.

mouse model of lymphoma = details: associated with specific changes in oncoprotein signaling; cited from earlier work
[2] = tested on: human leukemic cell line TF1; test: NIA of TF1 cells before and after treatment with ON01910; type: cell-based
Description: Using a single antibody that recognizes both the phosphorylated and unphosphorylated isoforms of ERK, we can determine levels of each ERK isoform, and also percent phosphorylation of ERK. […] To determine if NIA can measure signaling changes during treatment with novel drugs, human leukemic cells were treated with a PLK-1 inhibitor, ON01910 (Onconova, Inc). […] MEK2 phosphorylation decreased by 20% after ON01910 treatment. […] Treatment with ON01910 altered phosphorylation of signaling proteins in TF1 cells.

K562 human CML cell line = test: NIA of K562 CML cells treated with imatinib in vitro; type: cell-based; parameters: activated caspase-3 associated with apoptosis: dose or concentration left out as unconfirmed
Description: The NIA experiments were performed using a Firefly™ or CB1000™ instrument (Cell Biosciences). Briefly, for each capillary analysis, 4 nanoliters of 10 mg/ml lysate were diluted to 0.2 mg/ml in 200 nanoliters HNG-based lysis buffer [20 mM Hepes pH 7.5, 25 mM NaCl, 0.1%, 10% glycerol, Sigma Phosphatase Inhibitor Cocktail 1, Calbiochem Protease Inhibitor] or 200 nanoliters Bicine/CHAPS lysis buffer. 200 nanoliters sample mix containing internal pl standards were added. The Firefly system first performed a charge-based separation (isoelectric focusing) in a 5 cm long, 100 micron inner-diameter capillary. Predicted pl's were calculated using Scansite. Each sample was run on a panel of different pH gradients (3-10, 5-9) to optimize the resolution of different peak patterns. After separation and photo-activated in-capillary immobilization, proteins were detected with antibodies: MYC protein expression was detected using the C-19 rabbit polyclonal antibody that recognizes mouse and human MYC (Santa Cruz Biotechnology). BCL2 protein expression was detected using the clone 124 mouse monoclonal antibody that recognizes human BCL2 (Dako Laboratories). Total ERK1/2 protein expression was detected using a rabbit polyclonal antibody that recognizes mouse and human ERK1/2 (Upstate). Phospho-ERK 1/2 protein expression was detected using a mouse monoclonal antibody that recognizes both mouse and human pERK 1/2 (Cell Signaling). Additional antibodies used were: activated caspase 3 (Cell Signaling), MEK1 (Upstate), pMEK1 (Novus), MEK2 (Abcam), pSTAT3 (Cell Signaling), pSTAT5 (Cell Signaling), pJNK (Cell Signaling), HSP70 (Novus).
Quantitation of the peaks is performed using peak analysis software. The start and end of each peak, and a flat baseline were manually selected. The area of each peak was calculated by dropping verticals to the baseline at the peak start and end, and summing the area between the start and endpoints. […] The areas under different peaks within a single tracing represented various ERK isoforms. […]

[3] = TF1 cells after 24 hr of treatment

CC(C)c1c(C(=O)Nc2ccccc2)c(-c2ccccc2)c(-c2ccc(F)cc2)n1CC[C@@H](O)C[C@@H](O)CC(=O)O [atorvastatin]
phosphorylation of STAT3/5 ([1]; after eight days of treatment, NIA): detectable decreases; also recorded: decreased | STAT3 and STAT5 phosphorylation in CD20 positive cells ([1]; day 1 and day 8 of treatment, NIA and FACS): dramatic decrease | tumor regression (mouse model of lymphoma): causes tumor regression

COc1cc(OC)c(/C=C/S(=O)(=O)Cc2ccc(OC)c(NCC(=O)O)c2)c(OC)c1 [ON01910]
MEK2 phosphorylation decrease ([2]; TF1 cell line after ON01910 treatment): 20% | phosphorylation of JNK [2, 3]: increased phosphorylation | phosphorylation of MEK2 [2, 3]: decreased phosphorylation

Cc1ccc(NC(=O)c2ccc(CN3CCN(C)CC3)cc2)cc1Nc1nccc(-c2cccnc2)n1 [imatinib, imatinib mesylate]
phosphorylation of STAT3/5, JNK, MEK1 and MEK2 (K562 human CML cell line; K562, imatinib final concentration 10 mM in vitro, 0 h, 4 h and 20 h): changes in phosphorylation | activated caspase-3 associated with apoptosis (K562 human CML cell line; K562, imatinib in vitro, 0 h, 4 h and 20 h): expected increase | specific ERK2 phospho-isomer (peak 3) (K562 human CML cell line; K562, imatinib in vitro, 24 hours): decrease; also recorded: change in phospho-ERK
